This note sets out measurements from publication PMC4832243, “Discovery of Potent VEGFR-2 Inhibitors based on Furopyrimidine and Thienopyrimidne Scaffolds as Cancer Targeting Agents” (Scientific Reports, 2016).

In one data set the target is phospho-VEGFR-2 (Tyr951) (Mus musculus, UniProt P35918). Nature of the data set: Immunohistochemistry of EAC solid tumor sections, phospho-VEGFR-2. To be noted: oral treatment of EAC-bearing mice.
For another data set, the system named is CD31 and CD34 (% MVD). Put plainly: Immunohistochemistry of EAC solid tumor sections, microvessel density (CD31, CD34). To be noted: oral treatment of EAC-bearing mice.
A further data set deals with RET (Homo sapiens, UniProt P07949). Nature of the data set: In vitro multiple-kinase inhibition assay, RET. Type of data set: biochemical. The procedure:
(§1) In vitro multiple-kinase inhibition assay. […] Kinase enzymatic activity of the tested compounds was evaluated against a reference kinase inhibitor at 10 μM (Table 2).
(§2) The multiple kinases activity at single dose concentration of 10 μM was performed, c-Kit, c-Raf, c-Src, RET served as the enzyme source. […] Kinase-Glo Plus Luminescence kinase assay kit (Promega#V3772), ADP-Glo Luminescence assay kit was used for c-kit assay (Supplementary). […]
(§3) mM MgCl2, 0.1 mg/ml BSA, 1 mM DTT, 10 µM ATP, Kinase substrate and VEGFR. After the enzymatic reaction, 50 µl of Kinase-Glo Plus Luminescence kinase assay solution (Promega) was added to each reaction and incubate the plate for 5 minutes at room temperature.
(§4) Luminescence signal was measured using a BioTek Synergy 2 microplate reader. VEGFR activity assays were performed in duplicate at each concentration.
(§5) The luminescence data were analyzed using the computer software, Graphpad Prism. The difference between luminescence intensities in the absence of VEGFR (Lut) and in the presence of VEGFR (Luc) was defined as 100 % activity (Lut – Luc). Using luminescence signal (Lu) in the presence of the compound, % activity was calculated as:
(§6) % activity = {(Lut - Lu)/(Lut - Luc)}×100%, where Lu= the luminescence intensity in the […]
(§7) IC50 determination for inhibitor against VEGFR was calculated. The values of % activity versus a series of compound concentrations (1 nM - 10 nM - 100 nM - 1 µM - 10 µM) were then […]
(§8) or Hill coefficient. The IC50 value was determined by the concentration causing a half-maximal […]
(§9) In vitro multiple-kinase inhibition assay
(§10) Luminescence signal was measured using a BioTek Synergy 2 microplate reader […]
(§11) The luminescence data were analyzed using the same computer software and the same protocol

The target in a further data set is c-Kit (Homo sapiens, UniProt P10721). Put plainly: In vitro multiple-kinase inhibition assay, c-Kit (ADP-Glo). Format: biochemical. The procedure: as §1, §2, §3, §4, §5, §6, §7, §8, §9
Sequence of c-Kit (P10721 26-976): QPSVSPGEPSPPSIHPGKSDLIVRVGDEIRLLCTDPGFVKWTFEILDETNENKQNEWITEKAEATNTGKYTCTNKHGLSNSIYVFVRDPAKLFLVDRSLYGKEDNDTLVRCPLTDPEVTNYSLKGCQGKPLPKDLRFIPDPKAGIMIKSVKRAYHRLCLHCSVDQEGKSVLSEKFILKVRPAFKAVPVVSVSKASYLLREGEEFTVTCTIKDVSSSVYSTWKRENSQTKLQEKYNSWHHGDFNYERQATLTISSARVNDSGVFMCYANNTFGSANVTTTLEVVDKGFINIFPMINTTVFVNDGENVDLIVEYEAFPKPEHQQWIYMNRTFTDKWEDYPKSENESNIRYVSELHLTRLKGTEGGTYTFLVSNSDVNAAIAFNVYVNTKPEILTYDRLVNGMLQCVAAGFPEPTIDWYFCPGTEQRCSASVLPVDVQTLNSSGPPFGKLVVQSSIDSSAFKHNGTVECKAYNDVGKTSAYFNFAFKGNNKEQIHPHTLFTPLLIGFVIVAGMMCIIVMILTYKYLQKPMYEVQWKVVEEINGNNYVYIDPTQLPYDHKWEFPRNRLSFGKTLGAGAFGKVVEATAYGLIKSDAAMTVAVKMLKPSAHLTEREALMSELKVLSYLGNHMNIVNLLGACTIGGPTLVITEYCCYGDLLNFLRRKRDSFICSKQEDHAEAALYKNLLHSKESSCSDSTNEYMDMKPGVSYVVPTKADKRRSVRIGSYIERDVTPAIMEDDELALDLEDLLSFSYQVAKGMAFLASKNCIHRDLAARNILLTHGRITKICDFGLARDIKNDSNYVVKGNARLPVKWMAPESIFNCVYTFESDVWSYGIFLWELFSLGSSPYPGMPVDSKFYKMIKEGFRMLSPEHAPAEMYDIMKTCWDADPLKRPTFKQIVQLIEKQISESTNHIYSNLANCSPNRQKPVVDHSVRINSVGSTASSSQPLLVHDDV
The assay was performed using the same conditions for VEGFR-2 activity assay (section 5.2.1.1). The assays for c-Kit was an exception, it was performed using ADP-Glo Kinase assay reagents (Promega). It measures kinase activity by quantitating the ADP amount produced from the enzymatic reaction. The luminescent signal from the assay is correlated with the amount of ADP present and is directly correlated with the amount of kinase activity. Other conditions are same to the previous section except the final reaction volume was reduced to 25 µl. After the 40 min kinase reaction at 30 °C, 25 µl of ADP-Glo reagent was added and incubated for 45 min at room temperature followed by another 50 min incubation with 50 µl of Kinase detection mixture.
as §10, §11
On the technique in general: In ADP-Glo the light output rises with the ADP produced.

For another data set, the system named is active caspase 3. Put plainly: Immunohistochemistry of EAC solid tumor sections, active caspase 3. Conditions: oral treatment of EAC-bearing mice.
Data set [1] in a line: Toxicity: vital organs' indices and histopathology in EAC solid tumor bearing mice. Conditions: for Brain Index / Heart Index / Kidney Index / Liver Index: mean ± SD (n = 6). Format: in vivo, Swiss albino mice.
The subject of data set [2] is VEGF-induced vascular permeability (Evans Blue extravasation). Nature of the data set: Miles vascular permeability assay. To be noted: in vivo; 10 mg/kg (Fig. 15). Further details: species or system mice. As for the experimental part: Miles Vascular Permeability Assay. One to two days prior to the experiment, mice were shaved to expose the skin. Mice were anesthetized with intra-peritoneal injection of Avertin. A sterile solution of 1% Evans Blue (EB) in PBS was prepared and 100 μl was injected IV into the tail vein, using a needle (small gauge, 27–30) at a 10–15 degree angle. The animals were then left for (30–60) min. VEGF (50 μl of 1 ng/μl) and 50 μl of PBS with 0.05% gelatin were injected intradermally using a 30-gauge needle into the skin overlying the back. After 20 min, the animals were sacrificed by cervical dislocation that is recommended to limit significant interference with vascular permeability. The skin was opened, exposed and representative pictures were taken to assess the intensity of EB […]. The Formamide/EB mixture was centrifuged and supernatant absorbance was measured at 600 nm (Shimadzu Spectrophotometer, UV-1601; Japan). extravasation was calculated as ng EB per mg tissue.

Data set [3] deals with Ehrlich ascites carcinoma (EAC) solid tumor. Put plainly: In vivo anticancer activity, EAC solid tumor murine model. Also on record: species or system Swiss albino mice. Conditions: for TGI (%): once daily for 8 consecutive days; for Histopathological examination of EAC tumor sections (necrosis): hematoxylin-eosin, 40x. The procedure:
Animals. Female Swiss albino mice weighing 15–20 g were used in the present study. They were obtained from the animal breeding laboratory, National Cancer Institute (NCI), Cairo University, Egypt. Animals were kept in our animal facility, faculty of pharmacy, Ain Shams university at 25 ± 2 °C and a relative humidity of 40–45% with alternative day and night cycles of 12 h each. Animals had free access to pellet food and water ad libitum. Standard diet pellets (El-Nasr, Abu Zaabal, Egypt) contained not less than 20% protein, 5% fiber, 3.5% fat, 6.5% ash and a vitamin mixture. Animal care and experiments were conducted in accordance with the protocols approved by the Ethics Research Committee, Faculty of Pharmacy, Ain Shams University, following the Institutional Animal Care and Use Committee guidelines.
Tumor cells preparation and transplantation. Ehrlich ascites carcinoma (EAC) cells were obtained from NCI, Cairo University, Egypt. EAC cells were maintained in the ascitic form in Swiss albino mice by intraperitoneal transplantation of each mouse every 10 days. Ascitic fluid was drawn from tumor-bearing mice at the log phase (7–8th day of tumor bearing) of the tumor cells. The freshly drawn fluid was diluted with ice-cold sterile isotonic saline. 200 μl tumor cell suspension containing 2 × 10^6 tumor cells were then subcutaneously injected in each mouse.
Experimental design. Swiss albino mice were divided into six groups (n = 6 per group).
Evaluation of effectiveness. Tumor growth curve was drawn according to the change in tumor volume from first day of treatment (day 0) till day 7. Longest and shortest diameters of the solid tumor were monitored using a digital vernier caliper. Tumor volume (TV) of each animal was calculated using the following formula: […]
Tumor growth inhibition (TGI) was calculated as follows.
RTV = (Tumor volume at the day of measurement)/Tumor volume at the initial day.
Histopathological Examination
thickness by slidge microtome.
graded ethanol solutions.

The next data set addresses c-Raf (Homo sapiens, UniProt P04049). Put plainly: In vitro multiple-kinase inhibition assay, c-Raf. Type of data set: biochemical. As for the experimental part:
as §1, §2, §3, §4, §5, §6, §7, §8, §9, §10, §11

Sequence of c-Raf (P04049 whole entry, species assumed): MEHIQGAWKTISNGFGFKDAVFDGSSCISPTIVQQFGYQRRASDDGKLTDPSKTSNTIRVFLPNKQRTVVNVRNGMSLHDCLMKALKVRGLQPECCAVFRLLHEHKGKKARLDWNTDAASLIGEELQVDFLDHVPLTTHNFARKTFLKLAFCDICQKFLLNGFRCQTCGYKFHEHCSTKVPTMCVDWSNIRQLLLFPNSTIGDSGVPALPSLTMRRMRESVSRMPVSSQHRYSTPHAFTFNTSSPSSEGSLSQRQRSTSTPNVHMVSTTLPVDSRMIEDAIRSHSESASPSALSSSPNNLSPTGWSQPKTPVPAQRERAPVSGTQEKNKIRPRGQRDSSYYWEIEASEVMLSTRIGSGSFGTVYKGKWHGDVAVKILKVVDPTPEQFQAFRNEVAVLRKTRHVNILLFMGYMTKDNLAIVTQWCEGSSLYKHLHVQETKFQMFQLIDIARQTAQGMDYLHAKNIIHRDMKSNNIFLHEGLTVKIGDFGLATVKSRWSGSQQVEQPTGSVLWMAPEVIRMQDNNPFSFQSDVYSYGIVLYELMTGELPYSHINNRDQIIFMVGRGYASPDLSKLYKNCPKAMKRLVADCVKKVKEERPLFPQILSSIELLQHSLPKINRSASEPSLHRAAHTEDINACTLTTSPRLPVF
Sequence of RET (P07949 29-1114, species assumed): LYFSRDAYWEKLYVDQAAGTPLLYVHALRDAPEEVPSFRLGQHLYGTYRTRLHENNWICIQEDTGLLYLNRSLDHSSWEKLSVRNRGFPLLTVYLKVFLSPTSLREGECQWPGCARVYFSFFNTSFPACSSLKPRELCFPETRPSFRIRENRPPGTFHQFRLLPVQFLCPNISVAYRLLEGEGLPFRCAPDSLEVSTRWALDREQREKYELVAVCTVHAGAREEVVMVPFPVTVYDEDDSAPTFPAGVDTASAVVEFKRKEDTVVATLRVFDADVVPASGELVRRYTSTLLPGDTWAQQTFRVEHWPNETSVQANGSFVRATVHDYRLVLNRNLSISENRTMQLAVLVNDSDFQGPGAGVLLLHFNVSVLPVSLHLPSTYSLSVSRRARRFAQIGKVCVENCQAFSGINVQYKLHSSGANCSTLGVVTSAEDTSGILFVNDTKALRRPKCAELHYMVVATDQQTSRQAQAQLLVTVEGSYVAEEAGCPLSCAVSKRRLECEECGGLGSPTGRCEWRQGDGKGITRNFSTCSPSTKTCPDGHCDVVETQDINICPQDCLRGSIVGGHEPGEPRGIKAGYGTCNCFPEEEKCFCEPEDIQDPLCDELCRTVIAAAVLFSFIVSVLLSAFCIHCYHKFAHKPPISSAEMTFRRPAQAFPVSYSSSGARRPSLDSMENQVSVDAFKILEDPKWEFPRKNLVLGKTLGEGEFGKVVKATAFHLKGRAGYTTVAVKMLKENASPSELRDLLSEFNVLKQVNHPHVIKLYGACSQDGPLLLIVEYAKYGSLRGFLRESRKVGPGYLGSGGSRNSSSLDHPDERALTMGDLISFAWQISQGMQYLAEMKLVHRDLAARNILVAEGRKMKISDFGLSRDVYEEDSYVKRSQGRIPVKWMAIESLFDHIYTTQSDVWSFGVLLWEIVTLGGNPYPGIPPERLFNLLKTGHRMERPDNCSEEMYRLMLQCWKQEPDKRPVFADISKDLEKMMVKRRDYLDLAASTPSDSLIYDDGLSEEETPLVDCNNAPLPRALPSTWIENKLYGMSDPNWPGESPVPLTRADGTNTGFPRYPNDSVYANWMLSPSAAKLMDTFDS
Sequence of phospho-VEGFR-2 (Tyr951) (P35918 20-1345): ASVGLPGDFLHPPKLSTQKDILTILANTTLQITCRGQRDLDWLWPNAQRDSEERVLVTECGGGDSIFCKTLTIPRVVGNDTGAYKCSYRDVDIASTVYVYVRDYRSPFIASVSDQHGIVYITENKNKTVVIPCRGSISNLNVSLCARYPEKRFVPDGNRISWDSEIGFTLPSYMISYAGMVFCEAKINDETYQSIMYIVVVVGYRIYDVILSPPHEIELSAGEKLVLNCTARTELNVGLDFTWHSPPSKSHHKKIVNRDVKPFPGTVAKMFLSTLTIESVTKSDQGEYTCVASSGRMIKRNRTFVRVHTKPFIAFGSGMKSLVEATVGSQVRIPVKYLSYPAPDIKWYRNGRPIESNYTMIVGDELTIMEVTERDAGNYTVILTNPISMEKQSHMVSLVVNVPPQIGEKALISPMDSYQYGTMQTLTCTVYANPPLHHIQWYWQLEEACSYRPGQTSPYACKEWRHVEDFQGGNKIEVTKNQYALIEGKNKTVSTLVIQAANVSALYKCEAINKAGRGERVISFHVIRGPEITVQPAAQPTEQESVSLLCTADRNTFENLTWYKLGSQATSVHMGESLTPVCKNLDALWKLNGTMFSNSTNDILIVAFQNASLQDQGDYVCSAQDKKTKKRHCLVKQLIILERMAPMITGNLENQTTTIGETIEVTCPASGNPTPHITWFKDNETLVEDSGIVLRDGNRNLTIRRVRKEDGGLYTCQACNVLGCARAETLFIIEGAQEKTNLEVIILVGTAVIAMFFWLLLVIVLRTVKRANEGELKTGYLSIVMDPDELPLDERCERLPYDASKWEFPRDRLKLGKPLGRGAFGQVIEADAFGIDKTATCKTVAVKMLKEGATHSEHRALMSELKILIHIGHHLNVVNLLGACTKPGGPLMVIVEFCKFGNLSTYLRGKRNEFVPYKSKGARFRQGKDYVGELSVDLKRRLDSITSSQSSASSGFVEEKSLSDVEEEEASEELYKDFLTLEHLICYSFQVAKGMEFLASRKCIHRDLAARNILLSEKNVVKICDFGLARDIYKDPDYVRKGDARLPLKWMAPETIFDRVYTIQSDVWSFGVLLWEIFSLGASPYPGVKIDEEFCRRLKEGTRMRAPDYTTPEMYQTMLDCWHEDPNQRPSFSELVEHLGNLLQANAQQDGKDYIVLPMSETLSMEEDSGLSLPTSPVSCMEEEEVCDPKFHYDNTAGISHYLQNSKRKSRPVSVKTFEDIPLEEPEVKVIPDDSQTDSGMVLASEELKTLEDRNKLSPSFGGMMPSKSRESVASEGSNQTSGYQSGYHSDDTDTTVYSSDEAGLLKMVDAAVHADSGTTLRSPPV

A word on the inhibition: it is the drop in the measured response relative to a control, in per cent. For the compound `Cc1cccc(NC(=O)Nc2ccc(Oc3ncnc4sc5c(c34)CCCC5)cc2)c1` [Compound 21b], the “VEGFR-2 phosphorylation in EAC solid tumor” value at phospho-VEGFR-2 (Tyr951) is given as “decreased VEGFR-2 phosphoryaltion”. Also, the “%MVD in EAC solid tumor” value with CD31 and CD34 (% MVD) is “reduction of %MVD”. Moreover, the inhibition at 10 µM at RET was 87%; at c-Kit, 81%; on c-Raf, 35%. Further, the “Active caspase 3 levels in EAC solid tumor” value in the data set with active caspase 3 is on record as “increased active caspase 3 levels”. Besides, the “Brain Index” value is 0.0164 ± 0.004 in data set [1] (5 mg/kg/day po) and 0.0167 ± 0.004 in data set [1] (10 mg/kg/day po). The “Heart Index” value in data set [1] (5 mg/kg/day po) came out at 0.0048 ± 0.0014; in data set [1] (10 mg/kg/day po), 0.0046 ± 0.0017. Also, the “Kidney Index” value in data set [1] (5 mg/kg/day po) turned out to be 0.012 ± 0.003; in [1] (10 mg/kg/day po), 0.011 ± 0.003. Besides, the “Liver Index” value in data set [1] (5 mg/kg/day po) is recorded as 0.049 ± 0.01; in data set [1] (10 mg/kg/day po), 0.051 ± 0.017. In addition, the “Histopathological examination of liver, kidney, heart and brain samples” value in data set [1] (10 mg/kg, EAC solid tumor bearing mice (40x)) is “focally degenerated hepatocytes”. Besides, in data set [1] (oral, 5 and 10 mg/kg/day for 8 consecutive days), the “Toxicity (overall statement)” value was “did not show any noticeable toxicity”. Also, the “Antiangiogenic effect in Miles vascular permeability assay” value in [2] is given as “confirmed the antiangiogenic effects”. In data set [3] (5 mg/kg/day po, 8 consecutive days, mean ± SD, n = 6), the “Tumor Index” value stood at 0.041 ± 0.016. Also, the figures for the “TGI (%)” value in data set [3] (5 mg/kg/day po) and in [3] (10 mg/kg/day po) were 70.7% and 86.4%, respectively. Besides, the “Histopathological examination of EAC tumor sections (necrosis)” value was “mild focal necrosis” in data set [3] (5 mg/kg) and “moderate diffuse necrosis” in data set [3] (10 mg/kg).
As for `COc1cccc(NC(=O)Nc2ccc(Oc3ncnc4sc5c(c34)CCCC5)cc2)c1` [Compound 21c], the inhibition at 10 µM on RET turned out to be 91%; at c-Kit, 83%; on c-Raf, 26%.
